These results are taken from patent US20050222136A1, “Active substance combination” (priority 2004, published 2005).

Assay type in all cases: in vivo
Data set [1] concerns male Swiss albino mice. Kind of data set: Writhing test in mice (phenylbenzoquinone-induced writhing reactions). As to conditions: for Writhing test % Activity / inhibition at 40 mg/kg / inhibition at 80 mg/kg / inhibition at 160 mg/kg: 60 minutes prior to phenylbenzoquinone i.p., inhibition of writhing reactions vs control; for inhibition at 40 mg/kg / inhibition at 80 mg/kg / inhibition at 160 mg/kg / ED50: Mus musculus; for ED50: po; for ED50 / Writhing test ED50: mice; for Writhing test ED50: p.o., in mg/kg. The procedure: Ia. Writhing Test in Mice
The Writhing test for the determination of the analgesic activity of the inventive active substance combination is carried out according to the method described in the publication of E. Siegmund et al., Proc. Soc. Exp. Biol. Med. 1957, 95, 729-731 using male Swiss albino mice (20-25 g body weight, obtained from Harlan, S. Feliu de Codinas, Spain). The respective part of the description is hereby incorporated by reference and forms part of the respective disclosure.
The Writhing reactions are induced by intraperitoneal injection of phenylbenzoquinone (25 ml/kg in a 0.02% (volume/volume) ethanolic solution in a 5% (volume/volume) solution in destillated water with Evan's blue in an amount of 0.1% weight/volume) and the writhing reactions are counted during a 15 minute period following the injection. The substances to be tested are orally administered 60 minutes prior to the injection of the phenylbenzoquinone solution. The percentage of the inhibition of the writhing reactions is calculated on the basis of the control group as basis for 0% inhibition.
Background: In writhing tests, fewer writhes than in controls are read as antinociception.

Data set [2] relates to male Swiss albino mice. Kind of data set: Formaline test in mice. As to conditions: for inhibition at 40 mg/kg: Mus musculus, ip. On the procedure: Ib. Formaline Test in Mice
The Formaline test for the determination of the analgesic activity of the inventive active substance combination is carried out according to the method described in the publication of T. Ohkubo et al., J. Pharmacol. Exp. Ther. 1990, 252, 1261-1268 using male Swiss albino mice (20-25 g body weight, obtained from Harlan, S. Feliu de Codinas, Spain). The respective part of the description is hereby incorporated by reference and forms part of the respective disclosure.
The substances to be tested are intraperitoneally administered to the mice in 5% by weight solution of arabic gum in destined water as vehicle. 15 minutes later 20 μl of a 5% by weight solution of formaline in saline solution is injected into the back of the right paw of the animals. The total time in seconds of licking and/or biting the injected paw is registered in the acute phase, i.e. 0-5 minutes (phase I), and in the chronic phase, i.e. 15-30 (phase II), minutes after injection of the formaline. The percentage of inhibition is calculated based on the medium values of the acute and chronic phases of the control group as 0% inhibition of the primary and secondary response.

In the next data set the test system is male Wistar albino rats. Kind of data set: Determination of ulcerogenic effect in rats. As to conditions: stomach three hours after administration. The procedure: II. Determination of Ulcerogenic Effect in Rats The ulcerogenic effect of the inventive active substance combination is determined in male Wistar albino rats (body weight 160-200 g, obtained from Harlan, S. Feliu de Codinas, Spain) according to the method described in the publication of J. L. Wallace et al., […]. 1990, 259, […]-[…]. The respective part of the description is incorporated by reference and forms part of the present disclosure. Prior to the tests the rats are kept in cages for 24 hours with free access to drinking water. Afterwards the substances to be tested are orally administered to the rats in form of a 5% by weight suspension in arabic gum. Three hours after the administration of the respective substances to be tested the rats are sacrificed by inhalation of carbon dioxide, the stomachs are removed, opened along the great curvature, washed with saline solution and extended over a suitable frame. By the use of a Projectt 1.2 image analyzer (Projectt, Barcelona, Spain) the ulcerated areas of the stomachs are determined and their size expressed in mm^2.

Setting [3] is: 40 mg/kg i.p., acute phase 0-5 minutes after formaline, inhibition of licking/biting time, read-out: Formaline test % Activity Phase I.
[4] abbreviates: read-out: Formaline test % Activity Phase II.

Where a name gives a salt, the structure may show the parent alone.

With `CN(C)CCO[C@H](c1ccccc1)c1ccnn1C` [R-(+)-Cizolirtine, R-(+)5-[α-[2-(Dimethylamino)ethoxy]benzyl]-1-methyl-1H-pyrazole], in the data set on male Swiss albino mice [1] (40 mg/kg p.o.), the “Writhing test % Activity” value was determined as 28.9% and the inhibition at 40 mg/kg is 29%. For the same compound, the inhibition at 80 mg/kg with male Swiss albino mice [1] (80 mg/kg p.o.) turned out to be 49.7%. Also, the inhibition at 160 mg/kg in the data set with male Swiss albino mice [1] (160 mg/kg p.o.) came out at 72.5%. Besides, in the data set with male Swiss albino mice [1], the ED50 (in general, the dose at which the effect has come halfway, by size or by number of responders) is 79 mg/kg and the “Writhing test ED50” value was 79. Also, the inhibition at 40 mg/kg in the data set with male Swiss albino mice [2] (setting [3]) is 83%. Further, the inhibition at 40 mg/kg with male Swiss albino mice [2] (setting [4]) worked out at 68.5%.

As for `CC(C)Cc1ccc(C(C)C(=O)O)cc1` (stereo not shown) [Ibuprofen, reference compound], the inhibition at 40 mg/kg in the data set with male Swiss albino mice [1] (40 mg/kg p.o.) is 19.8%. Moreover, in the data set on male Swiss albino mice [1] (80 mg/kg p.o.), the inhibition at 80 mg/kg stood at 47.6%. Further, the inhibition at 160 mg/kg in the data set with male Swiss albino mice [1] (160 mg/kg p.o.) stood at 62.9%. Further, the ED50 in the data set with male Swiss albino mice [1] came out at 103 mg/kg.

`CN(C)CCO[C@H](c1ccccc1)c1ccnn1C.O=C(O)Cc1ccccc1Nc1c(Cl)cccc1Cl` [R-(+)-Cizolirtine diclofenacate, R-(+)-5-[α-[2-(Dimethylamino)ethoxy]benzyl]-1-methyl-1H-pyrazole diclofenacate]: the “Writhing test % Activity” value is given as 14.7% in the data set on male Swiss albino mice [1] (40 mg/kg p.o.), 57.3% in the data set on male Swiss albino mice [1] (80 mg/kg p.o.) and 72.1% in the data set with male Swiss albino mice [1] (160 mg/kg p.o.). For the same compound, the “Writhing test ED50” value in the data set on male Swiss albino mice [1] amounted to 84. Further, the Ulcerated area is 2.75 mm^2 in the data set with male Wistar albino rats (80 mg/kg p.o.) and 7.24 mm^2 in the data set on male Wistar albino rats (160 mg/kg p.o.).

Turning to `CN(C)CCO[C@@H](c1ccccc1)c1ccnn1C` [S-(−)-Cizolirtine, S-(−)-5-[α-[2-(Dimethylamino)ethoxy]benzyl]-1-methyl-1H-pyrazole], the figures for the “Writhing test % Activity” value in the data set with male Swiss albino mice [1] (40 mg/kg p.o.), with male Swiss albino mice [1] (80 mg/kg p.o.) and with male Swiss albino mice [1] (160 mg/kg p.o.) were 29.0%, 49.7% and 59.7%, respectively. Moreover, the “Writhing test ED50” value with male Swiss albino mice [1] turned out to be 95.26.

Take `CN(C)CCO[C@@H](c1ccccc1)c1ccnn1C.COc1ccc2cc([C@H](C)C(=O)O)ccc2c1` [S-(−)-Cizolirtine naproxenate, S-(−)-5-[α-[2-(Dimethylamino)ethoxy]benzyl]-1-methyl-1H-pyrazole naproxenate]: the “Writhing test % Activity” value is given as 26.7% in the data set on male Swiss albino mice [1] (40 mg/kg p.o.), 52.4% in the data set with male Swiss albino mice [1] (80 mg/kg p.o.) and 68.5% with male Swiss albino mice [1] (160 mg/kg p.o.). Besides, the “Writhing test ED50” value with male Swiss albino mice [1] was found to be 82.15.

As to `CN(C)CCO[C@H](c1ccccc1)c1ccnn1C.COc1ccc2cc([C@H](C)C(=O)O)ccc2c1` [R-(+)-Cizolirtine naproxenate, R-(+)-5-[α-[2-(Dimethylamino)ethoxy]benzyl]-1-methyl-1H-pyrazole naproxenate], the “Writhing test % Activity” value in the data set with male Swiss albino mice [1] (40 mg/kg p.o.) came out at 32.0%; in the data set on male Swiss albino mice [1] (80 mg/kg p.o.), 52.0%; in the data set on male Swiss albino mice [1] (160 mg/kg p.o.), 77.3%. In addition, in the data set on male Swiss albino mice [1], the “Writhing test ED50” value is 71.29. For the same compound, the “Formaline test % Activity Phase I” value in the data set with male Swiss albino mice [2] (40 mg/kg i.p., acute phase 0-5 minutes after formaline, inhibition of licking/biting time) is given as 49%. Besides, the “Formaline test % Activity Phase II” value in the data set on male Swiss albino mice [2] (40 mg/kg i.p., chronic phase 15-30 minutes after formaline, inhibition of licking/biting time) was found to be 36%. For the same compound, the Ulcerated area with male Wistar albino rats (160 mg/kg p.o.) amounted to 6.86 mm^2.

With `CC(C)Cc1ccc([C@H](C)C(=O)O)cc1.CN(C)CCO[C@H](c1ccccc1)c1ccnn1C` [R-(+)-Cizolirtine ibuprofenate, R-(+)-5-[α-[2-(Dimethylamino)ethoxy]benzyl]-1-methyl-1H-pyrazole S-(+)-ibuprofenate], the figures for the “Writhing test % Activity” value with male Swiss albino mice [1] (40 mg/kg p.o.), in the data set with male Swiss albino mice [1] (80 mg/kg p.o.) and in the data set on male Swiss albino mice [1] (160 mg/kg p.o.) were 15.9%, 45% and 80.9%, respectively. For the same compound, the “Writhing test ED50” value in the data set on male Swiss albino mice [1] is reported as 84.8. Also, the Ulcerated area with male Wistar albino rats (160 mg/kg p.o.) amounted to 3.21 mm^2.

On to `CC(C)Cc1ccc(C(C)C(=O)O)cc1.[Na]` (stereo not shown) [Ibuprofen-sodium, ibuprofen-sodium, reference compound], for which the Ulcerated area in the data set on male Wistar albino rats (80 mg/kg p.o.) turned out to be 5.29 mm^2.

Take `COc1ccc2cc([C@H](C)C(=O)O)ccc2c1` [Naproxen, reference compound]: the inhibition at 40 mg/kg in the data set with male Swiss albino mice [1] (40 mg/kg p.o.) is 32%; with male Swiss albino mice [2] (setting [3]) it was 31.5%; with male Swiss albino mice [2] (setting [4]) it was 18%. Further, the inhibition at 80 mg/kg in the data set with male Swiss albino mice [1] (80 mg/kg p.o.) came to 51.2%. Further, the inhibition at 160 mg/kg in the data set with male Swiss albino mice [1] (160 mg/kg p.o.) is 78.5%. The ED50 with male Swiss albino mice [1] was determined as 71.2 mg/kg. Further, the Ulcerated area in the data set on male Wistar albino rats (80 mg/kg p.o.) is 10.5 mm^2.

Take `O=C(O)Cc1ccccc1Nc1c(Cl)cccc1Cl` [Diclofenac-sodium, diclofenac in form of its sodium salt, reference compound]: the inhibition at 40 mg/kg with male Swiss albino mice [1] (40 mg/kg p.o.) was determined as 19.8%. The inhibition at 80 mg/kg in the data set with male Swiss albino mice [1] (80 mg/kg p.o.) came to 54.9%. Further, the inhibition at 160 mg/kg in the data set with male Swiss albino mice [1] (160 mg/kg p.o.) is 84.1%. Moreover, the median effective dose (ED50) with male Swiss albino mice [1] was 75.1 mg/kg. Besides, the Ulcerated area with male Wistar albino rats (40 mg/kg p.o.) amounted to 3.81 mm^2; in the data set on male Wistar albino rats (80 mg/kg p.o.), 13.7 mm^2.
